Reference: US9180111B2, “Reduction in complement activation and inflammation during tissue injury by carotenoids, carotenoid analogs, or derivatives thereof” (Cardax Pharma, Inc., priority 2005, dated 2015)

Key:
[1] = system: New Zealand white rabbits; test: Myocardial infarct size after 30 min LAD coronary artery occlusion and 3 h reperfusion (tetrazolium method); format: in vivo, rabbit
Procedure: Male New Zealand white rabbits (2.3-2.6 kg) were assigned randomly to two separate groups. Each animal received DDA aqueous formulation (50 mg/kg), or an equal volume of sterile NaCl solution, once per day intravenously. The dose of DDA was selected based on the findings of previous investigations in which it was determined that a dosing regimen over four days produced statistically significant myocardial salvage in Sprague-Dawley rats (41% mean salvage at 50 mg/kg) and mongrel canines (68% mean salvage at 50 mg/kg) after ischemia and reperfusion (Gross and Lockwood, 2004; Gross and Lockwood, In Press). The animals in each group received the respective treatments on each of four consecutive days, with the experimental protocol being initiated on fifth day.
One day after the last treatment (DDA or placebo), rabbits were anesthetized with a combination of xylazine (3.0 mg/kg) and ketamine (35 mg/kg) administered intramuscularly, followed by an intravenous injection of sodium pentobarbital (15 mg/kg). An endotracheal tube was inserted and the animals were placed on a positive pressure ventilator (Harvard Apparatus, Cambridge, Mass.). The right jugular vein was cannulated for blood sampling and the right carotid artery was instrumented with a Millar catheter micro-tip pressure transducer (Millar Instruments Inc., Houston, Tex.). The Millar catheter transducer was positioned immediately above the aortic valves to monitor aortic blood pressure. The lead II electrocardiogram was monitored throughout the protocol. A left thoracotomy and pericardiotomy were performed, followed by identification of the left anterior descending coronary artery. A silk suture (3-0; Genzyme Corporation, Fall River, Mass.) was passed under the artery and around a short length of polyethylene tubing. […] Coronary artery occlusion was maintained for 30 min after which time reperfusion was initiated by withdrawing the polyethylene tubing. […]

mongrel canines = details: 50 mg/kg i.v., four days; cited from earlier work
superoxide anion = test: Direct superoxide anion scavenging by EPR spectroscopy (DEPMPO spin-trap) in PMA-stimulated isolated human neutrophils; format: cell-based; details: aqueous phase
Procedure: Human polymorphonuclear leukocytes (PMNs) were isolated from freshly sampled venous blood of a single volunteer by Percoll density gradient centrifugation as described previously. Briefly, each 10 mL of whole blood was mixed with 0.8 mL of 0.1 M EDTA and 25 mL of saline. The diluted blood was then layered over 9 mL of Percoll at a specific density of 1.080 g/mL. After centrifugation at 400×g for 20 min at 20° C., the plasma, mononuclear cell, and Percoll layers were removed. Erythrocytes were subsequently lysed by addition of 18 mL of ice-cold water for 30 s, followed by 2 mL of 10×PIPES buffer (25 mM PIPES, 110 mM NaCl, and 5 mM KCl, titrated to pH 7.4 with NaOH). Cells were then pelleted at 4° C., the supernatant was decanted, and the procedure was repeated. […] Afterward, PMNs were counted by light microscopy on a hemocytometer. […] The microwave frequency was measured with a Model 575 microwave counter (EIP Microwave, Inc., San Jose, Calif.). […]
Instrument settings used in the spin-trapping experiments were as follows: modulation amplitude, 0.32 G; time constant, 0.16 s; scan time, 60 s; modulation frequency, 100 kHz; microwave power, 20 milliwatts; and microwave frequency, 9.76 GHz. The samples were placed in a quartz EPR flat cell, and spectra were recorded. The component signals in the spectra were identified and quantified as reported previously.

[2] = Determination of aqueous solubility/dispersibility; format: physicochemical; details: deionized water
Procedure: (§1) 30.13 mg of 3 was added to 1 mL of USP-purified water. The sample was rotated for 2 hours, then centrifuged for 5 minutes. After centrifuging, solid was visible in the bottom of the tube. A 125-μL aliquot of the solution was then diluted to 25 mL. The sample was analyzed by UV/Vis spectroscopy at 436 nm, and the absorbance was compared to a standard curve compiled from 4 standards of known concentration. The concentration of the original supernatant was calculated to be 2.85 mg/mL and the absorptivity was 36.94 AU*mL/cm*mg. Slight error may have been introduced by the small size of the original aliquot.
as §1, with “Next, 30.80” for “30.13”, “9” for “3”, “411” for “436”, “29.27” for “2.85”, “2.90” for “36.94”

In the case of CC1=C(/C=C/C(C)=C/C=C/C(C)=C/C=C/C=C(C)/C=C/C=C(C)/C=C/C2=C(C)C(=O)C(OC(=O)CCC(=O)O)CC2(C)C)C(C)(C)CC(OC(=O)CCC(=O)O)C1=O (stereo not drawn) [DDA, disodium disuccinate astaxanthin], the mean myocardial salvage ([1]; 50 mg/kg daily i.v. for four days, versus placebo) is reported as 51%, the “mean infarct size expressed as a percentage of the area at risk” value ([1]; 50 mg/kg/day i.v. for 4 days, 30 min occlusion, 3 h reperfusion, mean ± S.E.M.) is reported as 25.8±4.2% and the “heart rate, blood pressure, blood gases versus saline group” value ([1]; baseline and throughout protocol on day 5) is reported as “No differences”. For the same compound, the mean myocardial salvage (mongrel canines) was 68%, the “direct aqueous superoxide anion scavenging” value (superoxide anion) was “potent direct scavengers of superoxide anion” and the maximum aqueous dispersibility [2] was “greater than 10 mM”.
